# Measured values taken from ChEMBL document CHEMBL1135452, “Side-chain homologation of nodulisporic acid: synthesis of potent new dienyl derivatives” (Bioorg Med Chem Lett, 2002).
# Tested on: Pulicinae
# Test: In vitro systemic flea efficacy using membrane feeding assay.
# Assay type: functional
row,SMILES,Activity [p.p.m.]
1,C=C(C)[C@H]1C(=O)c2c3c(cc4c5c(n1c24)[C@@]1(C)C(CC[C@H]2[C@](C)(/C=C/C=C(\CCCC)C(=O)NC(C)(C)C)[C@@H](O)CC[C@@]21C)C5)C1=CC(C)(C)OC(C)(C)C1[C@@H]3O (some centres not stated),10
2,C=C(C)[C@H]1C(=O)c2c3c(cc4c5c(n1c24)[C@@]1(C)C(CC[C@H]2[C@](C)(/C=C/C=C(\C(C)=O)C(=O)N(C)C)[C@@H](O)CC[C@@]21C)C5)C1=CC(C)(C)OC(C)(C)C1[C@@H]3O (some centres not stated),1
3,C=CC/C(=C\C=C\[C@]1(C)[C@@H](O)CC[C@@]2(C)[C@H]1CCC1Cc3c(n4c5c(c6c(cc35)C3=CC(C)(C)OC(C)(C)C3[C@@H]6O)C(=O)[C@@H]4C(=C)C)[C@@]12C)C(=O)N(C)C (some centres not stated),1
4,C=C(C)[C@H]1C(=O)c2c3c(cc4c5c(n1c24)[C@@]1(C)C(CC[C@H]2[C@](C)(/C=C/C(C)=C/C(=O)NC(C)(C)C)[C@@H](O)CC[C@@]21C)C5)C1=CC(C)(C)OC(C)(C)C1[C@@H]3O (some centres not stated),10
5,C=C(C)[C@H]1C(=O)c2c3c(cc4c5c(n1c24)[C@@]1(C)C(CC[C@H]2[C@](C)(/C=C/C=C\C(N)=O)[C@@H](O)CC[C@@]21C)C5)C1=CC(C)(C)OC(C)(C)C1[C@@H]3O (some centres not stated),10
6,C=C(C)[C@H]1C(=O)c2c3c(cc4c5c(n1c24)[C@@]1(C)C(CC[C@H]2[C@](C)(/C=C/C=C(\C#N)c4nc6ccccc6[nH]4)[C@@H](O)CC[C@@]21C)C5)C1=CC(C)(C)OC(C)(C)C1[C@@H]3O (some centres not stated),10
7,C=C(C)[C@H]1C(=O)c2c3c(cc4c5c(n1c24)[C@@]1(C)C(CC[C@H]2[C@](C)(/C=C/C=C/C(=O)OCC)[C@@H](O)CC[C@@]21C)C5)C1=CC(C)(C)OC(C)(C)C1[C@@H]3O (some centres not stated),1
8,C=C(C)[C@H]1C(=O)c2c3c(cc4c5c(n1c24)[C@@]1(C)C(CC[C@H]2[C@](C)(/C=C/C=C/C(=O)NCc4ccccc4)[C@@H](O)CC[C@@]21C)C5)C1=CC(C)(C)OC(C)(C)C1[C@@H]3O (some centres not stated),10
9,C=CC/C(=C\C=C\[C@]1(C)[C@@H](O)CC[C@@]2(C)[C@H]1CCC1Cc3c(n4c5c(c6c(cc35)C3=CC(C)(C)OC(C)(C)C3[C@@H]6O)C(=O)[C@@H]4C(=C)C)[C@@]12C)C(=O)OC (some centres not stated),10
10,C=C(C)[C@H]1C(=O)c2c3c(cc4c5c(n1c24)[C@@]1(C)C(CC[C@H]2[C@](C)(/C=C/C=C/C(=O)N4CCCC4)[C@@H](O)CC[C@@]21C)C5)C1=CC(C)(C)OC(C)(C)C1[C@@H]3O (some centres not stated),1
11,C=C(C)[C@H]1C(=O)c2c3c(cc4c5c(n1c24)[C@@]1(C)C(CC[C@H]2[C@](C)(/C=C/C=C(\F)C(=O)NCC)[C@@H](O)CC[C@@]21C)C5)C1=CC(C)(C)OC(C)(C)C1[C@@H]3O (some centres not stated),1
12,C=C(C)[C@H]1C(=O)c2c3c(cc4c5c(n1c24)[C@@]1(C)C(CC[C@H]2[C@](C)(/C=C/C=C(\C#N)C(=O)N(C)C)[C@@H](O)CC[C@@]21C)C5)C1=CC(C)(C)OC(C)(C)C1[C@@H]3O (some centres not stated),1
13,C=C(C)[C@H]1C(=O)c2c3c(cc4c5c(n1c24)[C@@]1(C)C(CC[C@H]2[C@](C)(/C=C/C=C(\CCC)C(=O)NCC)[C@@H](O)CC[C@@]21C)C5)C1=CC(C)(C)OC(C)(C)C1[C@@H]3O (stereo in doubt),10
14,C=C(C)[C@H]1C(=O)c2c3c(cc4c5c(n1c24)[C@@]1(C)C(CC[C@H]2[C@](C)(/C=C/C=C(\CCC)C(=O)NC(C)(C)C)[C@@H](O)CC[C@@]21C)C5)C1=CC(C)(C)OC(C)(C)C1[C@@H]3O (some centres not stated),10
15,C=C(C)[C@H]1C(=O)c2c3c(cc4c5c(n1c24)[C@@]1(C)C(CC[C@H]2[C@](C)(/C=C/C(C)=C/C(=O)O)[C@@H](O)CC[C@@]21C)C5)C1=CC(C)(C)OC(C)(C)C1[C@@H]3O (some centres not stated),10
16,C=C(C)[C@H]1C(=O)c2c3c(cc4c5c(n1c24)[C@@]1(C)C(CC[C@H]2[C@](C)(/C=C/C=C(\CC)C(=O)NCC)[C@@H](O)CC[C@@]21C)C5)C1=CC(C)(C)OC(C)(C)C1[C@@H]3O (some centres not stated),1
17,C=C(C)[C@H]1C(=O)c2c3c(cc4c5c(n1c24)[C@@]1(C)C(CC[C@H]2[C@](C)(/C=C/C=C(\CCC)C(=O)O)[C@@H](O)CC[C@@]21C)C5)C1=CC(C)(C)OC(C)(C)C1[C@@H]3O (some centres not stated),> 10
